Test results published in patent US20250290065A1, “METHODS FOR MODULATING HUMAN L1 RETROTRANSPOSONS RNA AND COMPOSITIONS FOR USE THEREIN” (King Abdullah University of Science and Technology, priority 2019, published 2025).
“Also recorded” adds a separate entry of the source.

Columns and labels:
L1 promoter = conditions: Terasaki, et al., PLoS One 2013; cited from earlier work
[1] = test system: Line 1 retrotransposition; conditions: Nishikawa et al. 2018; Banuelos-Sanchez et al. 2019; cited from earlier work
[2] = test system: BAX, IFNa2, IFNb1, IFI44 expression in MSC
Procedure: L1 RNA was transfected in differentiating osteoblasts at day 7 using Lipofectamine™ MessengerMAX™ (Invitrogen, USA, Cat. No. LMRNA003) with a modified protocol were a lower RNA amount (10 times less) than recommended was transfected. RFP mRNA (System Bioscience, USA, Cat. No. MR800A-1) was used as negative control.
Real time quantitative polymerase chain reaction (qPCR) was performed with 7900HT Fast Real Time PCR system (Applied Biosystems). Each sample was analyzed in triplicate and normalized with the endogenous control, Ribosomal Protein L13A (RPL13A) for osteogenesis and Tata Binding Protein (TBP) for adipogenesis, for cDNA input concentration. No template and no RT were included as negative controls. For each 15 μl reaction, 10 ng (1 ng for L1) of cDNA was mixed with 1 μM specific primers mix and 7.5 μl of Sybr Select Master mix (#4472908, Life Technologies). The reaction was incubated at 95° C. for 10 minutes, followed by 40 cycles of denaturation at 95° C. for 15 seconds, annealing at 60° C. for 30 seconds and elongation at 72° C. for 30 seconds. Ct values were calculated by 7900HT Fast Real Time PCR RQ manager software (Applied Biosystems) and then normalized as DCt between the gene of interest and the endogenous calibrator. […] In all primer pairs each primer matches a different exon. Amplicons length was 80-130 nucleotides.

[3] = test system: OP patients derived MSC differentiating to osteoblasts; assay: L1 RNA transfection of MSC from osteoporotic patients, bone matrix quantification; type: cell-based, human
Procedure: (§1) Cells were washed in PBS and fixed with 4% Paraformaldehyde for 15 minutes. Mineralization was assessed by using the OsteoImage Mineralization Assay (#LOPA503, Lonza) according to manufacturer's indication. Mineralization was quantitatively assayed with GloMax discover plate reader (Promega) with appropriate excitation (492)/emission (520) wavelengths.

[4] = test system: differentiating osteoblasts; assay: Mineralization assay (OsteoImage) in differentiating osteoblasts; type: cell-based, human; conditions: 150 μM, after 21 days of differentiation, vs DMSO
Procedure: Bone marrow-derived MSC (#C-12974, PromoCell GmbH, Heidelberg, Germany) were grown in 0.1% gelatin solution (#07903, StemCell)-coated plates until passage 4. Growth medium (#PT-3001, Lonza) was changed every 3 days. Osteogenic differentiation was induced by replacing growth medium with Osteogenic Differentiation Medium (#PT-3002, Lonza) on 70% confluent cells seeded on 1:50 Matrigel (#356237, Corning)-coated plates. Adipogenic differentiation was induced by three cycles of induction/maintenance Adipogenic Differentiation Medium (#PT-3004, Lonza) on post-confluent cells seeded on 1:50 MatMatrigel (#356237, Corning)-coated plates.
as §1

[5] = test system: human mesenchymal stem cells; assay: Cell cycle analysis (Propidium Iodide, FACS); type: cell-based; conditions: 3TC vs DMSO; data not shown
Procedure: 2×105 MSCs were trypsinized for 5 min at 37° C., washed with PBS and 2% BSA, passed through a […] strainer (#352350, Corning) and then fixed at −20° C. for 30 min in 70% ethanol. After washing with PBS and 4% BSA, cells were resuspended in PBS and incubated 1 hour at 37° C. with RNAse. Cells were then washed and resuspended in 100 μl of Flow Cytometry Staining Buffer (R&D System, #FC001). 10 μl of 1 mg/ml Propidium iodide (PI) staining solution (#P3566) was added to the single cell solution, gently mixed, and incubated 5 min in the dark. Cell cycle analysis was performed on BD FACSCanto II Flow Cytometry System, using BD FACSDiva Software.

Which L1 promoter activity (L1 promoter) does the source give for `NC(=O)c1ccccc1O` [salicylamide] here?
Its L1 promoter activity is “induce L1 promoter activity”.

For `CC[C@]1(O)C[C@@H]2CN(CCc3c([nH]c4ccccc34)[C@@](C(=O)OC)(c3cc4c(cc3OC)N(C)[C@H]3[C@@](O)(C(=O)OC)[C@H](OC(C)=O)[C@]5(CC)C=CCN6CC[C@]43[C@@H]65)C2)C1` [vinblastine], which L1 promoter activity (L1 promoter) is on record?
Its L1 promoter activity is “induce L1 promoter activity”.

For `CC1=C(CC(=O)O)c2cc(F)ccc2/C1=C\c1ccc([S+](C)[O-])cc1` (centres unmarked) [sulindac], which L1 promoter activity (L1 promoter) is on record?
The L1 promoter activity was “induce L1 promoter activity”.

For `COc1cc(CNC(=O)CCCC/C=C/C(C)C)ccc1O` [Capsaicin], which “Line 1 retrotransposition” value [1] is on record?
Its value is “inhibit Line 1 retrotansposition”.

For `O=C(O)c1ccccc1Nc1cccc(C(F)(F)F)c1` [flufenamic acid], which L1 promoter activity (L1 promoter) is on record?
Its L1 promoter activity is “induce L1 promoter activity”.

For `O=C1NC(=S)NC(=O)C1C(=O)Nc1ccccc1` [merbarone], which L1 promoter activity (L1 promoter) is on record?
Its L1 promoter activity is “induce L1 promoter activity”.

With `Nc1nc(=O)n([C@@H]2CS[C@H](CO)O2)cc1F` [emtricitabine] as the molecule, how does the “Line 1 retrotransposition” value [1] read?
The value was “inhibit Line 1 retrotansposition”.

With `CC[C@@]1(O)C(=O)OCc2c1cc1n(c2=O)Cc2cc3ccccc3nc2-1` [camptothecin] as the molecule, how does the L1 promoter activity (L1 promoter) read?
The L1 promoter activity was “induce L1 promoter activity”.

For `c1ccc2c(c1)cc1ccc3cccc4ccc2c1c34` [benzo[a]pyrene], which L1 promoter activity (L1 promoter) is on record?
The L1 promoter activity was “induce L1 promoter activity”.

With `C=C1[C@@H](C)[C@H]2[C@H](Cc3ccccc3)NC(=O)[C@]23[C@H](OC(C)=O)/C=C/[C@@](C)(O)C(=O)[C@@H](C)C/C=C/[C@H]3[C@@H]1O` [cytochalasin D] as the molecule, how does the L1 promoter activity (L1 promoter) read?
The L1 promoter activity was “induce L1 promoter activity”.

Which L1 promoter activity (L1 promoter) does the source give for `O=C(O)c1cc(-c2ccc(F)cc2F)ccc1O` [diflunisal] here?
The L1 promoter activity was “induce L1 promoter activity”.

Which “induction of apoptosis and Interferon response genes” value [2] does the source give for “L1 RNA: Cy5-conjugated synthetic full-length human L1 mRNA, in vitro transcribed, capped, 5-methyl-C, Pseudo-U substituted, polyadenylated (TriLink)” here?
Its value is “neither apoptosis nor Interferon response genes were induced”.

And the osteoblasts maturation ([3]; in vitro differentiating MSC, all patients tested)?
Its osteoblasts maturation is “greatly enhanced osteoblasts maturation”.

What about the “bone matrix production / mineralized matrix” value ([3]; transfection at day 7 of osteogenesis, three days after transfection, 4 OP patients, vs random RNA) of the same molecule?
Its value is “restored bone matrix production; also recorded: fully rescued the production of mineralized matrix”.

For `Nc1ccn([C@@H]2CS[C@H](CO)O2)c(=O)n1` [Lamivudine 3TC, Lamivudine], which “mineral deposition (mineralization)” value [4] is on record?
The value was −69%.

And the “mineral deposition (mineralization)” value ([4]; listed as 3TC)?
Its value is −60%.

And the “cell cycle analysis and apoptotic cell number in sub-G1 peak” value [5]?
The value was “no significant differences”.
